The source of these data is paper PMC3440086, “Profiling Environmental Chemicals for Activity in the Antioxidant Response Element Signaling Pathway Using a High Throughput Screening Approach” (Environmental Health Perspectives, 2012).

The subject of assay [1] is antioxidant response element (ARE) signaling pathway. Briefly: ARE-bla β-lactamase reporter gene assay in HepG2 cells (qHTS). The assay is classed as cell-based, human. For orientation: In a reporter assay the amount or activity of a reporter protein is the signal.
Assay [2] relates to Nrf2-dependent ARE transcriptional activity. The experiment in a line: ARE-luc luciferase reporter gene assay in HepG2 cells (qHTS). Type of assay: cell-based. Also noted: Emax: reference not given here.
For assay [3], the system named is mutated ARE. The assay is classed as cell-based.
Assay [4] relates to mitogen-activated protein kinase (MAPK) pathway. Conditions: cited from earlier work.

The structures appear in SMILES notation. Entries after “also recorded” stand apart in the source; their conditions may differ.

By EC50 is commonly meant the concentration that produces a half-maximal response.

In the case of `Oc1cccc2cccnc12` [8-Hydroxyquinoline], the “activity in ARE-bla assay (words)” value in assay [1] is “active; also recorded: demonstrated activity”. The EC50 in assay [1] (Homo sapiens, HepG2, 16 h, read-out: ARE-bla EC50) turned out to be 16.1 ± 5.1 µM; in assay [2] (Homo sapiens, HepG2, 16 h, read-out: ARE-luc EC50), 10.1 ± 3.9 µM. Besides, the Emax in assay [1] (Homo sapiens, HepG2, read-out: ARE-bla Efficacy) came to 53%; in assay [2] (Homo sapiens, HepG2, read-out: ARE-luc Efficacy), 200%. Also, in assay [2], the “activity in ARE-luc assay (words)” value is “active; also recorded: demonstrated activity”. Also, the “ARE-bla mutant IC50” value in assay [3] is “inactive”. Further, in assay [4], the “induction of MAPK pathway” value is “shown to induce”.
